This note sets out measurements from US20240189289A1, “INHIBITORS OF EPHB3 SIGNALING” (The Brigham and Women`s Hospital, Inc., priority 2021, published 2024).

One data set can be described thus: Aqueous solubility. Format: physicochemical. To be noted: aqueous solution, aqueous buffer; oxalate salt, pH 7.4; read-out: aqueous solubility of the oxalate salt.
The subject of data set [1] is neonatal murine astrocytes. Description: Neonatal murine astrocytes activated with TNFα and IL-1β: qPCR and ELISA. Format: cell-based, mouse. Here is the method: Mouse primary astrocyte cultures. […] The cell suspension was then cultured at 37° C. in humidified 5% CO2 on poly-L-Lysine (#P4707, Sigma-Aldrich) pre-coated cell culture flasks. Medium was replaced every 3-5 days. The cells reached confluence after 7-10 days. Microglia were separated by shaking the glia culture at 225 rpm at 37° C. for at least 3 h and washing extensively with 1×PBS. Astrocytes were detached by mild trypsinization with Trypsin-EDTA (0.05%) at 37° C. and plated. […] Both cell types were then cultured separately for downstream procedures. […] Finally, microglia and astrocytes of each condition where magnetically separated as before and lysed for downstream gene expression analysis.
RNA isolation, cDNA synthesis and qPCR. […] Data were analyzed by the ddCt method by normalizing the expression of each gene to GAPDH and HPRT for mouse and GAPDH for human and then to the control group. All probes are listed below. • Mouse: EphB3 Mm00802553_m1, Ccl2 Mm00441242_m1, Csf2 Mm01290062_m1, Nos2 Mm00440502_m1, Tnf Mm00443258 m1, Il1b Mm00434228_m1, 116 Mm00446190_m1, GAPDH Mm99999915_g1. • Human: CCL2 Hs00234140_m1, CSF2 Hs00929873 ml, NOS2 Hs01075529_m1, TNF • Hs00174128_m1, IL6 Hs00985639_m1, IL1b Hs01555410_m1, GAPDH Hs02758991_g1.
On the technique in general: Quantitative PCR measures a nucleic acid by following its amplification.

Another data set has as its system NOD EAE. The experiment in a line: Chronic progressive EAE in NOD mice (MOG35-55). Format: in vivo, mouse. The protocol: EAE. […] EAE was assessed as follows: 0, no signs of disease; 1, loss of tone in the tail; 2, hind limb paresis; 3, hind limb paralysis; 4, tetraplegia; 5, moribund.
To further validate the potential of EphB3 kinase inhibition for the therapeutic modulation of CNS inflammation and neurodegeneration, a study was performed using non-obese diabetic (NOD) mouse model of chronic progressive EAE induced by immunization with MOG35-55, which recapitulated aspects of secondary progressive MS, including the progressive and irreversible accumulation of neurologic disability.

The test system of the next data set is splenic CD11b+ monocytes. Description: Monocyte migration assay with astrocyte-conditioned medium. Format: cell-based, mouse. To be noted: ACM from astrocytes pre-treated with compound. Here is the method: Generation of astrocyte-conditioned medium (ACM). […] After 24 h, cells were extensively washed with 1×PBS, and incubated with fresh astrocyte complete medium for 48 h. Supernatants were spun down and kept at −80° C. until tested in migration and neurotoxicity assays.
Monocyte Migration Assay. Monocytes were purified from spleens from C57BL/6J mice using CD11b Microbeads (#130-049-601, Miltenyi) following the manufacturer's instructions. 100,000 monocytes were seeded in the upper chamber of a 24-well cell culture transwell, with a 5 μm pore size (#3421, Thermo Fisher Scientific), containing 300 μL of astrocyte-conditioned medium (as detailed earlier) in the bottom chamber. After 3 h incubation at 37° C. in 5% CO2, cells were collected from the lower chamber after shaking and accutase solution incubation (#A6964, Sigma-Aldrich) and quantified by FACS.

Data set [2] can be described thus: Preliminary in vivo pharmacokinetic evaluation, IP, plasma and brain concentrations. Also on record: species or system Sprague-Dawley rats.
Another data set deals with primary astrocytes. The experiment in a line: Seahorse Mito Stress test (oxygen consumption) in primary astrocytes. Format: cell-based, mouse. Here is the method: Oxygen consumption. […] Mito Stress assay was then performed with Seahorse XF Cell Mito Stress Test Kit (Agilent Technologies, #103015-100) following the manufacturer's manual. […] The assay medium (DEMEM with 10 mM Glucose, 1 mM pyruvate and 2 mM glutamine) was used during the assay. The OCR rate was normalized to cell number estimated using CyQUANT cell proliferation assay kit (Invitrogen, #C7026).

For orientation: solubility means the dissolved amount per volume that the medium holds. For orientation: Cmax means the highest concentration seen after dosing.

For the compound `O=C(Nc1ccccc1Cl)c1cnc2ccc(C3CCNCC3)cn12` [A38], the solubility in “Aqueous solubility” is over 10000 µg/mL. Further, in data set [1], the “116 expression in astrocytes (qPCR)” value was “reduced 116 expression in astrocytes in a dose-dependent manner”, the “production of CCL2 (ELISA)” value is on record as “decreased”, the “production of IL-6 (ELISA)” value is given as “decreased” and the “production of TNFα (ELISA)” value is listed as “decreased”. Also, in the data set with NOD EAE (administration during the progressive phase), the “NOD EAE clinical scores” value is listed as “ameliorated NOD EAE, as indicated by the reduced clinical scores”. Besides, in the data set with NOD EAE (progressive phase of NOD EAE), the “astrocyte and microglial expression of transcriptional modules associated with CNS inflammation and neurodegeneration” value is reported as “suppressed”; the “peripheral T-cell response” value is listed as “no changes in the peripheral T-cell response were detected”; the “recruitment of pro-inflammatory monocytes to the CNS” value was “decreased recruitment”. Besides, the ACM chemoattractant activity result with splenic CD11b+ monocytes was “reduced ACM neurotoxic and chemoattractant activity”. For the same compound, the “brain Cmax” value in data set [2] (IP 3 mg/kg in 100% saline, male Sprague-Dawley rats, mono-oxalate salt) is given as 331 ng/mL. In data set [2] (inferred from the brain to plasma ratio), the Pgp substrate result is listed as “not a Pgp substrate”. Moreover, the Kp in data set [2] (rat, brain/plasma, IP 3 mg/kg, male Sprague-Dawley rats, mono-oxalate salt, read-out: brain to plasma ratio) was determined as 1.5. The Cmax in data set [2] (rat, plasma, IP 3 mg/kg in 100% saline, male Sprague-Dawley rats, mono-oxalate salt) stood at 221 ng/mL. In data set [2] (rat, plasma, IP 3 mg/kg in 100% saline, male Sprague-Dawley rats, mono-oxalate salt, read-out: plasma half-life T1/2 (converted)), the half-life was 135 min. Moreover, in the data set with primary astrocytes, the ATP-linked respiration result was “decreased”, the basal mitochondrial respiration result was “decreased” and the maximal mitochondrial respiration result was “decreased”.
